One substance from US20260216299A1, “Use of Cytoglobin in Preparation of Drug for Preventing and/or Treating Diabetes” (priority 2022, published 2026) can be followed below.

Test [1] relates to pancreatic tissue of C57BL/6J diabetic model mice. Kind of test: H&E staining of pancreatic tissue sections. It counts as in vivo, C57BL/6J mice. To be noted: acinar cell steatosis, islet morphology, inflammation; FIGS. 12A-12D. The protocol: (§1) The AUC for blood glucose changes within two hours post-glucose gavage was shown in FIG. 5, confirming impaired glucose tolerance in the DM group. • 2) Successfully modeled mice were divided into three groups based on no statistical difference in blood glucose within groups and statistical difference in blood glucose between groups: wherein the three groups are rhCygb treatment group (5 mg/kg subcutaneous injection), exendin-4 treatment group (50 μg/kg subcutaneous injection), and placebo group (0.1 mL PBS subcutaneous injection) (grouping without re-caging, mice remained in original cages), respectively.
(§2) The mice of placebo group, rhCygb treatment group, and EX-4 treatment group received daily subcutaneous injections of PBS, rhCygb, or EX-4, respectively for 2 months (frequency adjusted based on survival status of mice). […] Absorbance at 510 nm was measured using a microplate reader. Cholesterol content was calculated according to the formula: […]
The severity of lesions observed in the HE-stained pathological sections of each mouse was graded. This ordinal data was analyzed using the K Independent Samples non-parametric test in SPSS software, and the result indicated a statistically significant difference between groups. As SPSS lacks pairwise comparison for multiple independent samples, all data were ranked and converted into quantitative data, then subjected to one-way ANOVA.

For test [2], the system named is C57BL/6J diabetic model mice. The experiment in a line: Four blood lipid items in serum of treated mice (T-CHO, TG, HDL-C, LDL-C kits). The format is in vivo, C57BL/6J mice. The conditions noted are these: subcutaneous rhCygb 5 mg/kg or exendin-4 50 μg/kg, after 28 d of treatment. How it is done: as §1, §2
Serum from each treated C57BL/6J mouse was assayed using a total cholesterol assay kit. […] Absorbance at 510 nm was measured using a microplate reader. […] content was calculated according to the formula: […]
Serum from each treated C57BL/6J mouse was assayed using a triglyceride assay kit. […] Absorbance at 546 nm (A1) was measured using a microplate reader. […] Absorbance at 546 nm (A2) was measured again. […]

Regarding Exendin-4 [reference compound], in test [1], the “pancreatic tissue morphology (H&E)” value is listed as “persistent acinar steatosis similar to the PBS group”. In addition, the total cholesterol levels result in test [2] (FIG. 8) is “statistically significant reduction in total cholesterol levels compared to the placebo group”. In test [2] (FIG. 11), the LDL-C levels entry is “statistically significant reduction in LDL-C levels compared to the placebo group”.
